Source: patent US4950669A, “Methods and compositions for promoting growth of animals” (priority 1987, dated 1990)

How the values were obtained:
[1] = acute toxicity (LD50) in the mouse; format: in vivo; settings: for LD50: in vivo
[2] = rat, in vivo, ip, 50 mg/kg
Protocol: Per os, in the mouse still, the LD50 is above 2000 mg/kg. In the rat, after i.p. treatment with 50 mg/kg there was, within 3 hours from administration, a maximum lowering of the body temperature of 0.6° in respect to the controls treated with the only suspending medium.

[3] = hypotensive effect in the awake rabbit; format: in vivo; settings: same dosage (100 mg/kg) i.p.
[4] = pig growth study, intramuscular injection (Example X); format: in vivo; settings: pigs, 1 mg/kg i.m. every seven days
Protocol: N-morpholinyl-β-benzoylpropionamide (NMBP) was formulated as an injectable product at a concentration of 2% in polyethylene glycol. The formulation was administered to pigs by intramuscular injection at a dosage of 1 mg/kg, once every seven days. Pigs averaged 52.66 kg at initiation and were terminated at 90.8 kg. Control animals received no injections.

[5] = six-week swine feeding study, weanling barrows (Example XI); format: in vivo; settings: six weeks; for daily feed (rel.) / Avg. daily gain (rel.): control = 100; for Avg. daily gain / Avg. daily gain (rel.): swine feed
Protocol: N-morpholinyl-β-benzoyl-propionamide was admixed with swine feed at 20 ppm and at 60 ppm. A six-week feeding study was conducted using weanling barrows. Pigs averaging 8.80 kg initially (4-5 weeks of age) were housed four pigs per pen. Test diets were fed ad libitum throughout the six-week study. Average final weight for all pigs was 27.33 kg.

[6] = 28-day chicken growth study, feed or i.m. injection (Example XII); format: in vivo, chickens
Protocol: Portions of N-morpholinyl-β-benzoyl-propionamide were admixed with chicken feed at 1 mg/kg and a 2 mg/kg, respectively. Another portion was formulated into an injectable formulation at a concentration of 2% in polyethylene glycol. The N-morpholinyl-β-benzoylpropionamide was then administered to chickens, either by i.m. injection or in feed, over 28-day period. One group of controls received no medication, while another group of controls received Bacitracin MD in its feed at 30 g/ton. Those chickens receiving intramuscular injections were injected once a week with a dosage of either 1 mg/kg or 2 mg/kg, based on body weight. Birds were weighed on days 0, 14 and 28.

[7] = 70-day lamb study, oral or i.m. injection (Example XVII); format: in vivo, lambs
Protocol: A 70-day study was conducted in which N-morpholinyl-β-benzoyl-propionamide was administered to lambs by i.m. injection or by admixture with feed. In the case of oral administration, the N-morpholinyl-β-benzoyl-propionamide was mixed with the complete mixed ration at a level of 30 ppm.

[8] = Injection 1 mg/kg i.m. once a week, Day 14
[9] = Injection 1 mg/kg i.m. once a week, Day 28
[10] = Injection 2 mg/kg i.m. once a week, Day 14
[11] = Injection 2 mg/kg i.m. once a week, Day 28
[12] = Injection, 1.5 mg/kg i.m. every 2 weeks
[13] = Injection, 1.5 mg/kg i.m. every 2 weeks, Day 0-14
[14] = Injection, 1.5 mg/kg i.m. every 2 weeks, Day 0-28
[15] = Injection, 1.5 mg/kg i.m. every 2 weeks, Day 0-42
[16] = Injection, 1.5 mg/kg i.m. every 2 weeks, Day 0-56
[17] = Injection, 1.5 mg/kg i.m. every 2 weeks, Day 0-70
[18] = Injection, 1.5 mg/kg i.m. every 2 weeks, Day 15-28
[19] = Injection, 1.5 mg/kg i.m. every 2 weeks, Day 29-42
[20] = Injection, 1.5 mg/kg i.m. every 2 weeks, Day 43-56
[21] = Injection, 1.5 mg/kg i.m. every 2 weeks, Day 57-70

O=C(CCC(=O)N1CCOCC1)c1ccccc1 [NMBP, N-morpholinyl-β-benzoyl-propionamide]
LD50, safe limits ([1]; i.p.): 648 to 1363 mg/kg
LD50 ([1]; ip): 940 mg/kg
LD50 ([1]; po, per os): > 2000 mg/kg
maximum lowering of the body temperature in respect to the controls [2]: 0.6 °
hypotensive effect [3]: not hypotensive
improvement of average daily gain as compared with controls [4]: about 10%
improvement of feed-to-gain ratio as compared with controls [4]: about 4%
average daily gain (ADG) ([4]; control 0.867): 0.958 kg
average daily feed consumption (ADF) ([4]; control 2.76): 2.96 kg
feed-to-gain ratio (F/G) ([4]; control 3.18): 3.03
daily feed ([5]; 20 ppm): 1.022 kg
daily feed (rel.) ([5]; 20 ppm): 107
daily feed ([5]; 60 ppm): 0.96 kg
daily feed (rel.) ([5]; 60 ppm): 101
Avg. daily gain ([5]; 20 ppm): 0.45 kg
Avg. daily gain (rel.) ([5]; 20 ppm): 108
Avg. daily gain ([5]; 60 ppm): 0.42 kg
Avg. daily gain (rel.) ([5]; 60 ppm): 100
Average Weight ([6]; Feed 1 mg/kg, Day 0 (baseline)): 98.9 g
Average Weight ([6]; Feed 1 mg/kg, Day 14): 462.8 g
Feed Conversion ([6]; Feed 1 mg/kg, Day 14): 1.38
Weight Gain ([6]; Feed 1 mg/kg, Day 14): 363.9 g
Average Weight ([6]; Feed 1 mg/kg, Day 28): 947.6 g
Feed Conversion ([6]; Feed 1 mg/kg, Day 28): 1.64
Weight Gain ([6]; Feed 1 mg/kg, Day 28): 848.7 g
Average Weight ([6]; Feed 2 mg/kg, Day 0 (baseline)): 98.5 g
Average Weight ([6]; Feed 2 mg/kg, Day 14): 474.3 g
Feed Conversion ([6]; Feed 2 mg/kg, Day 14): 1.38
Weight Gain ([6]; Feed 2 mg/kg, Day 14): 375.8 g
Average Weight ([6]; Feed 2 mg/kg, Day 28): 1013.5 g
Feed Conversion ([6]; Feed 2 mg/kg, Day 28): 1.56
Weight Gain ([6]; Feed 2 mg/kg, Day 28): 915.0 g
Average Weight ([6]; Injection 1 mg/kg i.m. once a week, Day 0 (baseline)): 98.7 g
Average Weight [6, 8]: 460.6 g
Feed Conversion [6, 8]: 1.37
Weight Gain [6, 8]: 361.9 g
Average Weight [6, 9]: 938.2 g
Feed Conversion [6, 9]: 1.61
Weight Gain [6, 9]: 839.5 g
Average Weight ([6]; Injection 2 mg/kg i.m. once a week, Day 0 (baseline)): 98.6 g
Average Weight [6, 10]: 456.3 g
Feed Conversion [6, 10]: 1.38
Weight Gain [6, 10]: 357.7 g
Average Weight [6, 11]: 971.4 g
Feed Conversion [6, 11]: 1.56
Weight Gain [6, 11]: 872.8 g
weight loss of one lamb ([7]; Injection group, during the previous 2-week period, sacrificed on Day 55): 10 pounds
Necropsy of one lamb ([7]; Injection group, one lamb sacrificed on Day 55): chronic focal pneumonia
Daily Gain, Period [7, 12]: .16 kilograms
Weight, Final [7, 12]: 42.1 kilograms
Weight, Initial ([7]; Injection, 1.5 mg/kg i.m. every 2 weeks (baseline)): 27.6 kilograms
Daily Feed DM Consumption, Cumulative [7, 13]: 0.94 kilograms
Daily Feed DM Consumption, Period [7, 13]: 0.94 kilograms
Daily Gain, Cumulative [7, 13]: .23 kilograms
Daily Gain, Period [7, 13]: .23 kilograms
Feed DM/Gain, Cumulative [7, 13]: 4.09
Feed DM/Gain, Period [7, 13]: 4.09
Daily Feed DM Consumption, Cumulative [7, 14]: 1.00 kilograms
Daily Gain, Cumulative [7, 14]: .22 kilograms
Feed DM/Gain, Cumulative [7, 14]: 4.55
Daily Feed DM Consumption, Cumulative [7, 15]: 1.05 kilograms
Daily Gain, Cumulative [7, 15]: .22 kilograms
Feed DM/Gain, Cumulative [7, 15]: 4.77
Daily Feed DM Consumption, Cumulative [7, 16]: 1.06 kilograms
Daily Gain, Cumulative [7, 16]: .22 kilograms
Feed DM/Gain, Cumulative [7, 16]: 4.82
Daily Feed DM Consumption, Cumulative [7, 17]: 1.11 kilograms
Daily Gain, Cumulative [7, 17]: .21 kilograms
Feed DM/Gain, Cumulative [7, 17]: 5.29
Daily Feed DM Consumption, Period [7, 18]: 1.06 kilograms
Daily Gain, Period [7, 18]: .21 kilograms
Feed DM/Gain, Period [7, 18]: 5.05
Daily Feed DM Consumption, Period [7, 19]: 1.14 kilograms
Daily Gain, Period [7, 19]: .22 kilograms
Feed DM/Gain, Period [7, 19]: 5.18
Daily Feed DM Consumption, Period [7, 20]: 1.12 kilograms
Daily Gain, Period [7, 20]: .22 kilograms
Feed DM/Gain, Period [7, 20]: 5.09
Daily Feed DM Consumption, Period [7, 21]: 1.29 kilograms
Feed DM/Gain, Period [7, 21]: 8.06
Daily Gain, Period ([7]; Oral, 30 ppm): .14 kilograms
Weight, Final ([7]; Oral, 30 ppm): 43.0 kilograms
Weight, Initial ([7]; Oral, 30 ppm (baseline)): 28.1 kilograms
Daily Feed DM Consumption, Cumulative ([7]; Oral, 30 ppm, Day 0-14): 1.05 kilograms
Daily Feed DM Consumption, Period ([7]; Oral, 30 ppm, Day 0-14): 1.05 kilograms
Daily Gain, Cumulative ([7]; Oral, 30 ppm, Day 0-14): .27 kilograms
Daily Gain, Period ([7]; Oral, 30 ppm, Day 0-14): .27 kilograms
Feed DM/Gain, Cumulative ([7]; Oral, 30 ppm, Day 0-14): 3.89
Feed DM/Gain, Period ([7]; Oral, 30 ppm, Day 0-14): 3.89
Daily Feed DM Consumption, Cumulative ([7]; Oral, 30 ppm, Day 0-28): 1.10 kilograms
Daily Gain, Cumulative ([7]; Oral, 30 ppm, Day 0-28): .24 kilograms
Feed DM/Gain, Cumulative ([7]; Oral, 30 ppm, Day 0-28): 4.58
Daily Feed DM Consumption, Cumulative ([7]; Oral, 30 ppm, Day 0-42): 1.12 kilograms
Daily Gain, Cumulative ([7]; Oral, 30 ppm, Day 0-42): .23 kilograms
Feed DM/Gain, Cumulative ([7]; Oral, 30 ppm, Day 0-42): 4.87
Daily Feed DM Consumption, Cumulative ([7]; Oral, 30 ppm, Day 0-56): 1.14 kilograms
Daily Gain, Cumulative ([7]; Oral, 30 ppm, Day 0-56): .23 kilograms
Feed DM/Gain, Cumulative ([7]; Oral, 30 ppm, Day 0-56): 4.96
Daily Feed DM Consumption, Cumulative ([7]; Oral, 30 ppm, Day 0-70): 1.16 kilograms
Daily Gain, Cumulative ([7]; Oral, 30 ppm, Day 0-70): .21 kilograms
Feed DM/Gain, Cumulative ([7]; Oral, 30 ppm, Day 0-70): 5.52
Daily Feed DM Consumption, Period ([7]; Oral, 30 ppm, Day 15-28): 1.16 kilograms
Daily Gain, Period ([7]; Oral, 30 ppm, Day 15-28): .20 kilograms
Feed DM/Gain, Period ([7]; Oral, 30 ppm, Day 15-28): 5.80
Daily Feed DM Consumption, Period ([7]; Oral, 30 ppm, Day 29-42): 1.17 kilograms
Daily Gain, Period ([7]; Oral, 30 ppm, Day 29-42): .22 kilograms
Feed DM/Gain, Period ([7]; Oral, 30 ppm, Day 29-42): 5.32
Daily Feed DM Consumption, Period ([7]; Oral, 30 ppm, Day 43-56): 1.19 kilograms
Daily Gain, Period ([7]; Oral, 30 ppm, Day 43-56): .23 kilograms
Feed DM/Gain, Period ([7]; Oral, 30 ppm, Day 43-56): 5.17
Daily Feed DM Consumption, Period ([7]; Oral, 30 ppm, Day 57-70): 1.26 kilograms
Feed DM/Gain, Period ([7]; Oral, 30 ppm, Day 57-70): 9.00
